Test: Human HepG2 cell viability assay in 384 well format
Type: toxicity, cell-based
Design: dose 125 nL, time 70.5 hour; cytotoxicity at 70.5 h: concentration not given beside the values
Conditions: HepG2 cells, read-out: Inhibition

SMILES	cytotoxicity at 70.5 h
COc1ccc(Cl)cc1C(=O)NCc1cnn(C)c1C	-0.564%
CCNC(=O)[C@@H]1C[C@H](N)CN1Cc1ccc(-c2cc[nH]n2)o1	9.98%
COC(=O)C1CCCN1C(=O)c1cc(CC(C)C)no1 (stereo not drawn)	-1.76%
O=C(O)C1c2nc[nH]c2CCN1Cc1cc(-c2ccccc2)no1 (stereo not drawn)	-4.98%
COCCN(C)C[C@@H]1CN(C(=O)c2ccc3c(c2)OCO3)C[C@@H]1CO	-12.8%
CCN(CC)C(=O)Cn1cc(C(=O)NCCCc2scnc2C)nn1	-4.02%
Cc1ccsc1C(=O)NCc1cccnc1N(C)CCc1ccccn1	-7.98%
COCCN1CCC(C(=O)N(C)CCOc2ccc(C)cc2Cl)C1 (stereo not drawn)	20.7%
O=C(c1cnnn1-c1ccccc1)N1CCCC(c2ccn[nH]2)C1 (stereo not drawn)	48.8%
O=c1[nH]c(-c2cccnc2)nc2c1CCN(S(=O)(=O)N1CCCC1)C2	-12%
COc1ccc(OC2CCN(C(=O)CCc3n[nH]c(N)n3)CC2)cc1	21.5%
COc1cccc(C(=O)N2C[C@H]3CC[C@@H]2CN(Cc2cscn2)C3)c1	-23.3%
CCn1c(CC2CCN(C(=O)C3CNCCO3)CC2)nn(C)c1=O (stereo not drawn)	-16.2%
COCCCN1C(=O)CC[C@H]2CN(Cc3cc4ccccc4o3)CC[C@H]21	-1.98%
Cc1cc(N2CCN(C(=O)CCc3scnc3C)CC2)nc(N)n1	18.7%
CCOc1cccc(CN2CCCC(Nc3ccc(F)cc3)C2)c1O (stereo not drawn)	-6.06%
Cn1ccc2c(-c3nccc(N)n3)ccnc21	5.54%
CCn1ncnc1C1CC(=O)NCc2nc(N3CCOCC3)sc21 (stereo not drawn)	-20.5%
O=C(CCN1CCCO1)N1CC[C@@H](c2ccc3ccccc3c2)[C@H](O)C1	0.165%
CC(C)c1nccn1C(C)C(=O)N1CCN(S(C)(=O)=O)CC1 (stereo not drawn)	-9.53%
COc1ccccc1CN(C)C(=O)CN1C(=O)OC[C@@H]1c1ccccc1	19.7%
CCc1nc(C)c([C@H]2CN(C)C[C@@H]2C(=O)NC(C)(C)c2ccccc2)[nH]1	-6.37%

SMILES	cytotoxicity at 70.5 h
CCc1cc(N2CCC(NCCc3ccc(C)o3)CC2)nc(C)n1	-16.4%
Cc1cc(C2CCCN2C(=O)Cn2c(C)cc(=O)c3ccccc32)on1 (stereo not drawn)	-6.42%
Cc1cc2nc(C(C)C)cc(N3CCN(S(N)(=O)=O)CC3)n2n1	-3.4%
CCCS(=O)(=O)N1CCC2(CC1)CC(=O)N(CCCc1ccccc1)C2	23.4%
CN1CCC(N(C)C[C@H]2CC[C@@H](Cc3cccc(CO)c3)O2)CC1	5.66%
CC(=O)N1CCc2c(nc(N(C)C)nc2N(C)CCC2CCCCO2)C1 (stereo not drawn)	11.3%
CCc1cc(N(C)Cc2ccncn2)n2nc(C)c(C)c2n1	-5.09%
Cc1nn(C)c(C)c1NC(=O)c1cccc(CN2C[C@H]3CC[C@@H](C2)N3)c1	-13.8%
CCCc1nnc(NC2CCN(C3CCSCC3)CC2)o1	-13.9%
CS(=O)(=O)N1C[C@@H]2CC[C@H](C1)N(C/C=C/c1ccc(F)cc1)C2	-4.45%
COC(=O)c1ccc(OC)c(OC23CCCN(CC2)C3)c1 (stereo not drawn)	-8.44%
NC(=O)c1cncc(Oc2cccc(CN3CCCC3)c2Cl)n1	-4.84%
CCN(Cc1cnn(C)c1)C[C@H]1CC[C@@H](Cc2cccc(CN)c2)O1	3.32%
Fc1cccc(Cl)c1Cn1ncnc1CSCCN1CCCC1	-6.36%
O=C(NC1CCC1)c1cccc(S(=O)(=O)NCc2nc(C3CC3)no2)c1	6.45%
COc1cc(C(=O)N2CC[C@@H](NC(=O)c3ccccn3)[C@H](O)C2)ccn1	-9.28%
CCN(CC)C1CCN(C(=O)c2cc(CC(C)C)nn2CC)C1 (stereo not drawn)	3.49%
CCN1CC2(CCN(Cc3nc(CSC)no3)CC2)CC1=O	23.5%
Cc1cc2cccc(C(=O)N3CC[C@@H](N)[C@H](O)C3)c2o1	-9.95%
Cc1cc(C(F)(F)F)nc(N2CCN(Cc3nccn3C)CC2)n1	4.75%
Cn1cc(CN2CCC(CCC(=O)NC3CC3)CC2)cn1	0.934%
CCn1ccnc1CN(C)C1CCCN(Cc2ccccc2F)C1 (stereo not drawn)	-1.31%

SMILES	cytotoxicity at 70.5 h
CC1CN(Cc2nc(Cc3ccccc3F)no2)CCN1C (stereo not drawn)	-2.74%
C[C@@H]1CN(Cc2ccc(C(F)(F)F)cc2F)CC[C@]1(C)O	26.4%
Cc1sc2nc(CCN)nc(N(C)CCCC3CCCO3)c2c1C (stereo not drawn)	16.5%
CN(CC1(CO)CCC1)c1nc2c(c(=O)[nH]1)Cc1ccccc1OC2	-10.8%
CC(C)N(C(=O)c1ccccc1-c1nc2c([nH]1)CCNC2)C(C)C	5.55%
Cn1ncc(NC(=O)Cn2cc(-c3ccc(F)cn3)cn2)n1	-10.2%
CNc1cc(C)nc(N2Cc3cnn(Cc4ccc(F)cc4)c3C2)n1	11.4%
Cc1nnsc1CN(C)Cc1ccc(C(=O)Nc2sccc2C#N)cc1	-3.25%
O=C(O)[C@]12CCCN(Cc3cccnc3)[C@@H]1CCN(c1cnccn1)C2	2.83%
O=C1C[C@H]2CC[C@@H](CN1)N2C1CCSCC1	0.716%
CSc1cccc(CC(=O)N[C@@H]2CCNC[C@H]2O)c1	10.3%
COCc1nnc(C(=O)N2CCC(N3CCCCC3)CC2)o1	16.4%
Cc1ccc(CN(CCN(C)C)C(=O)Nc2ccc(C)c(C#N)c2)s1	1.83%
COc1cccnc1-c1ccc(F)c2c1OC(CN)C2 (stereo not drawn)	3.56%
Cc1ccc(CN2C[C@H]3CC[C@@H]2CN(Cc2[nH]cnc2C)C3)o1	-0.228%
Cc1ccc(-c2nnc(CN3CCOCC(CO)C3)o2)n1C (stereo not drawn)	-3.57%
CN(CCO)C[C@@H]1CN(Cc2ccccc2-c2ccccc2)C[C@@H]1CO	-2.36%
C1CCC(c2nc3c(c(N4CC(N5CCOCC5)C4)n2)CCNCC3)C1	-8.17%
CCOCCN1CCC=C(C2c3nc[nH]c3CCN2C(C)=O)C1 (stereo not drawn)	0.27%
Cc1ccc(C)c(OCCNC(=O)[C@@H]2CCCCN2)c1	-5.85%
O=C(CCc1cc2n(n1)CCCNC2)NCCS(=O)(=O)N1CCCC1	21.6%
Cc1cc2occ(CC(=O)N3CCC4(CCCN(C)C4=O)C3)c2cc1Cl (stereo not drawn)	-8.33%

SMILES	cytotoxicity at 70.5 h
CCC(=O)c1ccc(OCC(=O)NC(C)c2ncnn2CC)cc1 (stereo not drawn)	-17.2%
NC(=O)c1noc(Cn2ccc3ccccc3c2=O)n1	-4.6%
NC(=O)NCCC(=O)N1CCC(c2cc(-c3ccccc3Cl)n[nH]2)CC1	-1.52%
CCSc1ncc(CN2C[C@H]3CC[C@@H]2CN(C2CCOCC2)C3)cn1	-7.51%
Cc1cc(C(=O)N2CCn3nc(C(=O)NC4CC4)cc3C2)nc(C)n1	-2.56%
O=C(CCC1CCN(C2CCSCC2)CC1)NCC1CCCO1 (stereo not drawn)	-12%
O=C(O)CSc1nnc(-c2ccn[nH]2)n1-c1cccc(C(F)(F)F)c1	-4.2%
CCNC(=O)[C@@H]1C[C@@H](N)CN1C(=O)CCc1ccc(C)c(C)c1	-10.5%
Cc1ccc(-c2nc3c([nH]2)CCNC3C(=O)O)c2cccnc12 (stereo not drawn)	-6.16%
COc1ccc(C(=O)N2CCC(Oc3ccccc3C)(C(=O)O)CC2)o1	-3.87%
Cc1nc(CN(Cc2cccnc2)Cc2ccsc2)c[nH]1	0.327%
CC(C)N1CC(C(=O)N2CCC(Oc3ccccc3Cl)CC2)CC1=O (stereo not drawn)	-0.961%
CCCc1nc(N[C@H]2COC[C@@H]2N2CCCCC2)c2cnn(C)c2n1	-13.5%
C1CC(CN2C[C@H]3CC[C@@H]2CN(Cc2noc(C4CCCC4)n2)C3)C1	22.2%
CS(=O)(=O)N1CCC(c2nnc(CN3CCCC3)n2C2CC2)CC1	0.642%
COc1cc(C)cc(C(C(=O)O)N(C)Cc2ccncc2C)c1OC (stereo not drawn)	4.18%
Cc1ccc(-c2cc(C(=O)N(C)Cc3noc4c3CCCC4)[nH]n2)o1	43.8%
N[C@@H]1c2ccccc2C2(CCN(C(=O)c3ccc(Cl)cn3)CC2)[C@H]1O	18.5%
COCCN(Cc1nccs1)C(=O)c1c(C)cc(C)[nH]c1=O	12.2%
Cc1nc(NCc2noc(C3CCCO3)n2)c2ccsc2n1 (stereo not drawn)	26.9%
O=C1CNCC(C(=O)N2CC(Oc3ccccc3Cl)C2)N1 (stereo not drawn)	-7.25%
Cc1n[nH]c(C)c1CCC(=O)N1CCc2c(nc[nH]c2=O)C1	-22.4%

SMILES	cytotoxicity at 70.5 h
CN1CCC(C)(CN(C)Cc2ccc(CCC(C)(C)O)cc2)C1 (stereo not drawn)	-6.89%
COCCCN1CC2(CCCN(c3ncc(Cl)cc3F)C2)CCC1=O (stereo not drawn)	3.03%
O=C(CCCN1CCOCC1)N1CCCC(CO)(CC2CC2)C1 (stereo not drawn)	-9.81%
O=C(c1cc2ccccc2s1)N1CCC(C(=O)O)(n2cccn2)CC1	-4.38%
CCOC(=O)C1(Cc2cccc(OC)c2)CCN(Cc2ncc[nH]2)CC1	-8.46%
CCc1cc(NCCc2cnccn2)n2nc(C)c(C)c2n1	-5.77%
Cc1nc(C)c(C(=O)N2CCc3[nH]nc(COc4ccccc4)c3C2)s1	-1.76%
Cc1cc(CN2CCC(CNC(=O)c3cnc(C)nc3C)C2)[nH]n1 (stereo not drawn)	7.59%
CC(=O)c1cc(C(=O)N2CC[C@@H]3CC[C@H](C2)N3C)c(=O)[nH]c1C	22.4%
CN1CCCN(C(=O)c2csc3nc(-c4ccc(Cl)cc4)cn23)CC1	-23%
CCCc1nc(CNC(=O)Cc2csc(C)n2)cs1	0.825%
Cc1c(CN2CCC(C(=O)O)(n3ccnc3)CC2)oc2ccccc12	-7.33%
CC(C)Oc1cccc(CN2CCC(C(C)N3CCOCC3)CC2)c1 (stereo not drawn)	-8.8%
COc1ccc([C@@H]2CN(c3cnccn3)C[C@H]2N(C)C)cc1	22%
CCCn1ncc(CN(Cc2ccsc2)Cc2ccco2)c1C	-6%
CN(CCSc1ccccc1)C(=O)C(c1cccnc1)N1CCOCC1 (stereo not drawn)	33.5%
CCNc1ncc(C(=O)N2CCC(c3ccccc3C(=O)O)C2)cn1 (stereo not drawn)	2.76%
CCc1cn[nH]c1C1CCCN(C(=O)c2noc(C)c2COC)C1 (stereo not drawn)	-10.2%
CN(C)C(=O)c1ccc(C2CCCN2C(=O)c2cccc3c2OCC3)s1 (stereo not drawn)	-6.24%
Cc1ccc(CN2CCN(C(=O)c3ccccc3O)C(C)C2=O)cc1 (stereo not drawn)	-18.7%

From ChEMBL document CHEMBL3507680, “University of Dundee, Gates Library screen for HepG2 cell viability”
